The values that follow come from publication PMC6750840 (Journal of Medicinal Chemistry, 2019).

Data set [1] deals with histamine-induced flare response. The following applies: after oral administration; cited from earlier work.
For data set [2] the following is noted: after administration; cited from earlier work.
A further data set relates to H1R. The note with it: cited from earlier work.
Another data set has as its target human H1R (Homo sapiens, UniProt P35367). Briefly: Binding rate constants of [3H]levocetirizine. The note with it: four concentrations (1–35 nM), 360 min, 37 °C.

Sequence of human H1R (P35367 whole entry): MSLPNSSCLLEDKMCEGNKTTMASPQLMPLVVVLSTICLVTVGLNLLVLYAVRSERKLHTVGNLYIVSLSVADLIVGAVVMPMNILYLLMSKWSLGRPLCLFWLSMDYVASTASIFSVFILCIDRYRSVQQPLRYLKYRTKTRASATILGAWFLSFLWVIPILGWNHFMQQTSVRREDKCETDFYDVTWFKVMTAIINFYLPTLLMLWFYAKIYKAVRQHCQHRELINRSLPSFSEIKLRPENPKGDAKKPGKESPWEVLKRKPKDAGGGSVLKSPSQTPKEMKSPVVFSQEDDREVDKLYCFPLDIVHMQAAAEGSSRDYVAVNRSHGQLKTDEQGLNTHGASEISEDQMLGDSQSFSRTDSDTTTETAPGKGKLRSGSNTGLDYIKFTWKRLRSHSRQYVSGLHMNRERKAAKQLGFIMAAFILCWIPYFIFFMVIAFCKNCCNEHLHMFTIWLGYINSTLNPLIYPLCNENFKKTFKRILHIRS

As for `Cc1cncc(CN2CCC(=C3c4ccc(Cl)cc4CCc4cccnc43)CC2)c1` [Compound 1, rupatadine], the “duration of antagonism of the histamine-induced flare response” value in data set [1] was “up to 72 h”. In addition, the “time up to which plasma levels could be detected” value in data set [2] is reported as “up to 12 h”.

Turning to `O=C(O)COCCN1CCN([C@H](c2ccccc2)c2ccc(Cl)cc2)CC1` [levocetirizine], in the data set on H1R, the “fold longer residence time at the H1R than mepyramine” value is on record as 100 fold.

Turning to “(R)-5-(4-((4-Chlorophenyl)([4-^3H]phenyl)methyl)piperazin-1-yl)pentanoic Acid [[^3H]levocetirizine]”, on human H1R, the koff is recorded as 0.022 ± 0.003 min^–1 and the kon is 3.7 ± 0.4 10^6 min^–1 M^–1.
